Laboratory results: US20240000754A1, “METHODS OF TREATMENT OF LIVER FAILURE” (GENFIT, priority 2020, published 2024)

Legend:
[1] = system: hepatic transcriptome of mice; test: Hepatic transcriptomic analysis (RNA-seq) in CDAA/c diet-fed mice treated with NTZ; assay type: in vivo; conditions: NTZ 100 mg/kg/day versus CDAA/c alone, adjusted p=2.6×10-13
Procedure: Liver injury was induced in 5-6 week-old male C57Bl/6 mice (Janvier Labs, France) by feeding them a cholesterol (1%) supplemented choline-deficient L-amino acid-defined diet (CDAA/c) (Ssniff, Germany) for 12 weeks (n=12). Some animals received from day 1 and throughout the study CDAA/c diet supplemented with NTZ (Interchim, France) (100 mg/kg/day) (n=8). Mice receiving choline supplemented L-amino acid-defined (CSAA) diet served as additional controls (n=6).
Total RNA was isolated from mice livers using Nucleospin® 96 RNA kit (ref 740709.4, Macherey Nagel, France) (n=5). Upon measurement of RNA samples concentration by Multiskan™ GO spectrophotometer (Thermo Scientific, France), the quality was assessed using 2100 Bioanalyser from Agilent (USA). […]
Then reads were aligned on the genome reference (Mus musculus GRCm38.90—GenBank assembly accession GCA_000001635.2) with rnacocktail using hisat2 v.2.1.0 as aligner with default parameters (Sahraeian et al. Nature communications 2017). […]
To identify differentially expressed genes (DE genes), we used R (version 3.4.3) and the DESEq2 library (v. 1.18.1). […] Briefly, the count matrix produced by FeatureCounts was analyzed by the DESeqDataSetFromMatrix( ) function followed by the DEseq( ) function from the DESeq2 library. […]

[2] = system: HepG2 cells; test: NH4Cl-induced mortality in HepG2 cells (CytoTox-Glow dead cell protease activity); assay type: cell-based, human; conditions: HepG2, NTZ 0-5 μM, 60 mM and 120 mM NH4Cl, 14 hours
Procedure: After cell adherence (10 hours), cells were washed with PBS and were incubated in the presence of 0, 60, or 120 mM of NH4Cl (Fluka, France) in DMEM without L-Glutamine and FBS for 14 hours.
Cytotoxicity was measured using CytoTox-Glow™ assay (#G9291, Promega, USA). Briefly, 100 μL of reagent was added per well, and the plates were incubated in the dark at room temperature for 15 min. The CytoTox-Glow™ Assay is a luminescent cytotoxicity assay that measures the relative number of dead cells in cell populations. Luminescence was measured using a Spark microplate reader (#30086376, Tecan, USA). The amount of luminescence (RLU) directly correlates with the percentage of cells undergoing cytotoxic stress.

[3] = system: rats with BDL+LPS-induced ACLF; test: Kidney function in BDL+LPS-induced ACLF in rats; assay type: in vivo; conditions: NTZ 100 mg/kg gavage, 3 hours post-LPS
Procedure: BDL surgery of rats and acute decompensation were performed as in the previous example.
Renal injury was evaluated by serum cystatin C concentrations determined by ELISA (Mouse/Rat Cystatin C Immunoassay Quantikine® ELISA, MSCTC0, R&D Systems).

[4] = system: rats with BDL+LPS-induced ACLF; test: Brain edema in BDL+LPS-induced ACLF in rats; assay type: in vivo; conditions: LPS 1 μg/kg i.p., NTZ 100 mg/kg gavage just before LPS, 3 hours post-LPS
Procedure: BDL surgery was performed on 37 Sprague Dawley rats weighing approximately 270 g at Charles River laboratory (France). After anesthesia with isoflurane (Vetflurane, Alcyon, France), and cutaneous application of 2% lidocaine (Alcyon), a median laparotomy was performed to expose the liver and duodenum. The main bile duct was identified and dissected. After that, the bile duct was ligated in two parts: a first ligation was made in the middle of the bile duct, and the second ligation was made above the entrance of the pancreatic duct. The bile duct was then cut in the middle, to avoid recanalization.
The animals were then transferred to Genfit's animal facility (France) after a minimum of 5 days of recovery post-surgery. […] Unoperated animals were included in the study as healthy controls.
Twenty-two days after BDL surgery, acute decompensation was induced by intraperitoneal administration of 1 μg/kg LPS (Escherichia coli O111:64, Sigma-Aldrich, Germany). Four rats with BDL received phosphate buffer saline (PBS, Fisher Scientific, USA) instead of LPS to be used as BDL controls. Each animal was continuously observed following LPS injection in order to assess the degree of severity of the inflammatory response and pain. […]

[5] = system: TAA induced cirrhosis in rats; test: TAA-induced cirrhosis in rats: liver function and fibrosis; assay type: in vivo; conditions: 16 weeks TAA
[6] = system: rats with CCl4+LPS-induced ACLF; test: Example 9: CCl4+LPS-induced acute-on-chronic liver failure in rats; assay type: in vivo
Procedure: This study included 4 phases: • 1) Pre-sensitization phase: phenobarbital ([…]) (ref P5178-25G, Sigma-Aldrich) was added to the drinking water of 4-week-old male Sprague-Dawley rats (˜200 g) for 2 weeks prior to CCl4 administration • 2) Induction phase: hepatic severe fibrosis was induced by repeated oral tetrachlorure (CCl4) administrations (twice a week, increasing doses from 0.10 to 0.85 ml/kg, twice weekly) for 10 or 15 weeks, with the same protocol as the protocol described in example 8. • 3) Treatment phase: after 15 weeks of CCl4 administrations, gavage was stopped one week before LPS administration. […] A last dose (50 mg/kg) was administered 30 minutes just before ACLF induction. • 4) ACLF induction: LPS was administrated i.p. at 0.03 mg/kg.
LPS solution (Escherichia coli O111:64, Sigma-Aldrich, Germany) was prepared under a microbiological safety cabinet and was dissolved in phosphate buffer saline (PBS) at 15 μg/mL, aliquoted and frozen until the day of experiment. LPS was administered at 2 m L/kg to the rats.
38 male Sprague-Dawley rats (Janvier Labs, France) have been allocated to this study. Animals had ad libitum access to water and chow diet (ref E15000-04, Ssniff, Germany) all along the study. After 9 weeks of CCl4 administration, animals were randomly allocated to 2 groups according to ammonia and albumin plasmatic levels (in order to have similar means in the two groups).
ACLF was evaluated, at the end of the study, by biochemical analyses of hepatic and renal injury or function biomarkers.
At the end of the study, blood was collected by sublingual vein puncture under light isoflurane anesthesia and transferred to ethylenediamine tetra-acetic acid (EDTA), serum-gel, and lithium heparin tubes. EDTA and lithium heparin tubes containing blood were rapidly centrifuged and the plasma fraction was collected. Plasma aliquot of heparin lithium were snap frozen in liquid nitrogen and stored at −80° C., EDTA-plasma aliquots were stored at −20° C. and serum-gel tubes were kept at room temperature for 30 minutes, centrifuged and stored at −20° C.
Experimental results are expressed as mean±standard deviation and plotted as bar graphs. Comparison between groups was tested using a Student T test for all variables that follows a normal distribution (#: p<0.05; ##: p<0.01; ###: p<0.001). A Welsh test was applied in case of different variances between groups (3a: p<0.05; cm: p<0.01; man: p<0.001). A log-transformation was applied for plasma ALT and AST in all samples to obtain a normal data distribution. For other non-normally distributed variables, a non-parametric Mann-Whitney test was applied ($: p<0.05; $$: p<0.01; $$$: p<0.001). Differences to the Ctrl week 10 (W10) group are notified, if not otherwise specified.

[7] = system: rats with CCl4+LPS-induced ACLF; test: Example 8: renal function markers in CCl4+LPS-induced ACLF in rats; assay type: in vivo; conditions: 15 weeks CCl4 + LPS, NTZ 50 mg/kg BID 3 days, 24 h after LPS
Procedure: Cirrhosis decompensation often associates with alterations of kidney functions. […] Briefly, ACLF was induced by lipopolysaccharide (LPS) injection in rats with advanced liver fibrosis/cirrhosis induced by repeated carbon tetrachloride (CCl4) administrations for 15 weeks.
The protocol study included 4 phases: • 1) Pre-sensitization phase: phenobarbital (P5178, Sigma Aldrich) was added to the drinking water ([…]) of 32 4-week-old male Sprague-Dawley rats (˜200 gr, Janvier Lab) for 2 weeks in order to activate cytochrome enzymes that metabolize CCl4. • 2) Induction of liver fibrosis: chronic liver damages were induced by repeated (twice a week) oral CCl4 (ref: 289116, Sigma Aldrich; diluted in olive oil) administrations (increasing doses starting with 0.10 ml/kg, adding 0.05-0.10 ml/kg at each administration to reach 0.85 ml/kg at 7 weeks and thereafter) for up to 15 weeks, with final doses as follows:
• 3) Treatment phase: after 15 weeks of CCl4 administration, CCl4 gavage was stopped one week before LPS administration.
During the first hours following LPS administration, each animal was continuously observed in order to assess the degree of severity of the inflammatory response and pain. The appearance of the animal (change in fur, skin color), the degree of activity and vigilance (response to a stimulus, opening of the eyelids, activity . . . ), gait and attitude were monitored. Any animal showing evident signs of suffering and close to death was euthanized. […] All surviving animals were euthanized 24 h after LPS challenge for plasma and tissue analyses. […]
Renal injury was evaluated by plasma creatinine, urea and cystatin C concentrations. Plasma creatinine and urea concentrations were measured using the appropriate Randox kits (CR 8316, UR 8334, respectively) for Daytona plus automate (Randox, cat #BR 8377) using the manufacturer instructions. Plasma cystatin C concentration was determined by ELISA (Mouse/Rat Cystatin C Immunoassay Quantikine® ELISA, MSCTC0, R&D Systems).

[8] = system: cirrhotic rats after LPS injection (ACLF); test: ACLF model: LPS injection in TAA-cirrhotic rats; assay type: in vivo
Procedure: Male Sprague Dawley rats (175-200 g) (Janvier Labs, France) received intraperitoneal injections of thioacetamide (TAA) 3 times a week at the dose of 150 mg/kg during the first week and then at 200 mg/kg during 14 weeks to induce cirrhosis. Rats were stratified to treatment groups (n=5 per group) based on mean plasma levels of fibrosis markers (alpha-2 macroglobulin and Metallopeptidase Inhibitor 1 (TIMP1)) and liver function tests (plasma total bile acid and albumin) obtained from sublingual blood sampling.
After cirrhosis induction, rats received a single intraperitoneal injection of 0.05 mg/kg lipopolysaccharide (LPS from Escherichia coli O111:64, Sigma-Aldrich) to induce ACLF, one week after TAA administration was stopped. […] Plasma were obtained from sublingual blood sampling just before sacrifice.
The concentration of total bile acids was measured using the appropriate Randox kit for Daytona Plus automate (Randox, cat #BI 3863). In the presence of Thio-NAD, the enzyme 3-alpha hydroxysteroid dehydrogenase (3-a HSD) converts bile acids to 3-keto steroids and Thio-NADH. The reaction is reversible and 3-a HSD could convert 3-keto steroids and Thio-NADH to bile acids and Thio-NAD. In the presence of excess NADH, the enzyme cycling occurs efficiently and the rate of formation of Thio-NADH is determined by measuring specific change of absorbance at 405 nm.

[9] = system: mice with acetaminophen (APAP) intoxication; test: Acetaminophen-induced acute liver failure in mice; assay type: in vivo; conditions: APAP 300 mg/kg i.p., NTZ 50 mg/kg gavage 30 minutes before, 6 hours after APAP
Procedure: Acute liver failure was induced by administration of toxic dose of acetaminophen (APAP) in mice. After a 5-day acclimation period, 8 week-old C57BL/6J male mice (Janvier, France) were stratified into 3 groups of 10 mice according to their body weight. All mice were fasted overnight before the administration of 300 mg/kg APAP by intraperitoneal injection. […] Mice had free access to food and water right after APAP injection. Six hours after APAP injection, blood was collected in all mice on heparin by retro-orbital sinus punction under anesthesia. Liver injury was assessed by plasma aspartate aminotransferase (AST) determined using a Horiba Pentra 400 machine and related Pentra assay kit (Horiba France SAS, France). Animals were sacrificed 24 hours post-APAP administration by cervical dislocation, exsanguinated with saline and liver samples were collected and weighed.

[10] = NTZ 30 mg/kg/day in diet for last 4 weeks, versus TAA control

In the case of `CC(=O)Oc1ccccc1C(=O)Nc1ncc([N+](=O)[O-])s1` [NTZ, nitazoxanide], the “Induction of GluI expression” value [1] is reported as 1.6 fold, the “Mortality rate (dead cell protease activity)” value [2] is reported as “reduced the mortality rate in a dose-dependent manner” and the “Serum cystatin C” value [3] is reported as “drastically reduced cystatin C, almost to the level of healthy controls”. The “Brain water (brain edema, % of water contained in brain)” value [4] was “remarkably reduced”, the Collagen proportionate area ([5]; NTZ 30 mg/kg/day for last 4 weeks, TAA control 7.74±0.38%, p=0.77) was 7.53±0.64% and the Plasma albumin [5, 10] was “rescued”. For the same compound, the Plasma total bilirubin [5, 10] was “drastically decreased”, the “Survival 24 h after LPS injection” value ([6]; rats, 15 weeks CCl4 + LPS 0.03 mg/kg i.p., NTZ 50 mg/kg BID 3 days, same in vehicle group) was 60% and the “Reduction of serum IFNγ” value ([6]; rats, CCl4 15 weeks and LPS, p=0.04) was 56%. For the same compound, the “Mortality over 24 hours” value ([6]; rats, CCl4 + LPS, NTZ 50 mg/kg BID 3 days, same in vehicle group (4/10 rats)) was 40%, the “Change of plasma urea” value ([6]; surviving rats 24 hours post-LPS, LPS-induced renal impairment, p=0.002) was −92% and the “Change of plasma creatinine” value ([6]; surviving rats 24 hours post-LPS, LPS-induced renal impairment, p=0.009) was −102%. For the same compound, the “Change of plasma cystatin C” value ([6]; surviving rats 24 hours post-LPS, LPS-induced renal impairment, p=0.02) was −166%, the “Reduction of plasma AST” value ([6]; surviving rats 24 hours post-LPS, NTZ versus vehicle, p=0.005) was 87% and the “Reduction of plasma ALT” value ([6]; surviving rats 24 hours post-LPS, NTZ versus vehicle, p=0.007) was 80%. For the same compound, the “Reduction of total bilirubin” value ([6]; surviving rats 24 hours post-LPS, plasma, p=0.02) was 80%, the “Restoration of albumin production” value ([6]; surviving rats 24 hours post-LPS, plasma, p=0.04) was 95% and the “Plasma GGT level” value ([6]; surviving rats 24 hours post-LPS, LPS vehicle 11.2 U/I) was < 6.15 U/I. The Plasma creatinine [7] was “restoring creatinine, urea and cystatin C levels to the levels of the olive oil controls”, the “Plasma cystatin C” value [7] was “restoring creatinine, urea and cystatin C levels to the levels of the olive oil controls” and the Plasma urea [7] was “restoring creatinine, urea and cystatin C levels to the levels of the olive oil controls”. The “Circulating (plasma total) bile acids level” value ([8]; TAA-cirrhotic rats after ACLF induction by LPS, versus vehicle) was “reduced”, the “Delay of time to death” value ([8]; TAA-cirrhotic rats, LPS 0.05 mg/kg i.p., NTZ oral gavage 50 mg/kg/day BID 3 days plus last dose 30 minutes before LPS) was 1 h and the “Plasma AST” value [9] was “greatly reduced AST to a level similar to that with NAC”.
